From article PMC7335359, “Design and Synthesis of Dihydroxamic Acids as HDAC6/8/10 Inhibitors” (Chemmedchem, 2020)

Columns and labels:
HDAC10 [1] = target: T1, HDAC10 (Homo sapiens, UniProt Q969S8); assay: ligand displacement TR-FRET assay, HDAC10; assay type: binding; parameters: host or cells: Sf21 insect cells (baculovirus); details: ligand-displacement FRET assay; read-out: HDAC10 pIC50 (converted)
T1 sequence (Q969S8 1-669): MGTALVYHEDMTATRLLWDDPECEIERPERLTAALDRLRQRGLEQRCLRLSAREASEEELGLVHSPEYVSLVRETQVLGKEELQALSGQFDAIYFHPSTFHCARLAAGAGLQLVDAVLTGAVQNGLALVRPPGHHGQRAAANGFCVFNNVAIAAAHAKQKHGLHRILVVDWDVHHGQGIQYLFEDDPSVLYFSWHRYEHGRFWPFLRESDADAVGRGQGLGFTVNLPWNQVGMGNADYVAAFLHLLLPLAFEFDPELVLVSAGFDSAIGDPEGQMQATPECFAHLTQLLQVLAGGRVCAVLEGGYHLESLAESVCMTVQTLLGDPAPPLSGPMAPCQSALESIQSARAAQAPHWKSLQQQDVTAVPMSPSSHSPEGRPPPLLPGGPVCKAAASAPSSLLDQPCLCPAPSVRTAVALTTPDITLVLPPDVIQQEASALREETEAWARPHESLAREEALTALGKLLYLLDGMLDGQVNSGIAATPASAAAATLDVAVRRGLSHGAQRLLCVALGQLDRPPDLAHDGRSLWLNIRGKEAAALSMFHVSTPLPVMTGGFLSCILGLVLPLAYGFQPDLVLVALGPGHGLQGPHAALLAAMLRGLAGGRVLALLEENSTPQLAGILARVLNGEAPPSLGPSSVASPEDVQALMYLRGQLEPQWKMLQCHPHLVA
Description: Expression and purification of TwinStrepII‐GST‐HDAC10: A synthetic gene encoding TwinStrepII‐GST‐HDAC10 (human) was ordered from GeneArt (Thermo Fischer Scientific) and subcloned into the pFastBac1 vector. The resulting construct was used for transposition in E. coli DH10EMBacY cells. The isolated bacmid DNA was then used to generate the recombinant baculovirus. For protein expression, 10 mL of baculovirus was added to 1 L of Sf21 cells at a density of 1×10^6 cells/mL. The infected Sf21 cells were grown for 72 h in Sf‐900 III SFM medium (Thermo Fischer Scientific) at 27 °C. Cells were harvested by centrifugation and re‐suspended in running buffer (100 mM Tris pH 8.0, 150 mM NaCl, 1 mM EDTA and 1 mM DTT) supplemented with 10 mM MgCl2, benzonase and cOmplete protease inhibitors (Merck). […] The clarified lysate was then loaded onto a 5 mL Strep‐Tactin Superflow high capacity column (IBA) pre‐equilibrated in running buffer. After sample loading and washing, the TwinStrepII‐GST‐HDAC10 protein was eluted in running buffer supplemented with 5 mM desthiobiotin (IBA). The elution fractions containing TwinStrepII‐GST‐HDAC10 were pooled and concentrated before being injected onto a HiLoad 16/600 Superdex 200 pg size exclusion chromatography column (GE Healthcare) pre‐equilibrated with 25 mM HEPES/NaCl pH 7.5, 150 mM NaCl, 0.5 mM EDTA, 1 mM DTT and 10 % glycerol. Samples were eluted from the size exclusion chromatography column in the same buffer, flash‐frozen in liquid N2 and stored at −80 °C.
The TR‐FRET measurements of the monohydroxamic acids in this manuscript were measured in the original assay format, which is described directly below this paragraph. The TR‐FRET measurements of the dihydroxamic acids in this manuscript were measured in the modified format, which is described two paragraphs below this one.
The concentrations of reagents in 10 μL final assay volume were 3 nM GST‐HDAC10, 30 nM “Tubastatin‐Alexa647‐Tracer” and 0.5 nM Eu‐anti‐GST. GST‐HDAC10 and LanthaScreen™ Eu‐anti‐GST Antibody were purchased from Life Technologies, and the Tubastatin‐Alexa647‐Tracer was synthesized in‐house as previously described.19 An 11‐fold 1 : 3‐serial dilution of compounds starting at 2 mM was prepared in 384 well pp‐plates (Greiner) from 10 mM stocks in DMSO and 1 μL was transferred to assay plates. Nine μL of the reagent‐mix was added and the plate was incubated for 1 h at RT before TR‐FRET was measured in an EnVision™ plate reader equipped with a TR‐FRET Laser module. […] Percent inhibition was calculated for each well from negative control wells containing 2 % DMSO and positive control wells containing 20 μM SAHA. The resulting dose‐response curves were fitted in ActivityBase (IDBS) using a four‐parameter logistic model and pIC50‐values were calculated.
After drug dosing to the premixed assay reagents in buffer, plates were shaken (800 rpm orbital shaker, 30 s), centrifuged (300 g, 1 min) and incubated at room temperature in the dark for 60 min. TR‐FRET was measured with a CLARIOstar (BMG Labtech) plate reader, equipped with TR‐FRET filters.

HDAC8 = target: T2, HDAC8 (Homo sapiens, UniProt Q9BY41); assay: HDAC-Glo I/II enzymatic assay, HDAC8; assay type: biochemical; details: read-out: HDAC8 pIC50 (converted)
T2 construct: purchased BPS Bioscience 50008
T2 sequence (Q9BY41 1-377): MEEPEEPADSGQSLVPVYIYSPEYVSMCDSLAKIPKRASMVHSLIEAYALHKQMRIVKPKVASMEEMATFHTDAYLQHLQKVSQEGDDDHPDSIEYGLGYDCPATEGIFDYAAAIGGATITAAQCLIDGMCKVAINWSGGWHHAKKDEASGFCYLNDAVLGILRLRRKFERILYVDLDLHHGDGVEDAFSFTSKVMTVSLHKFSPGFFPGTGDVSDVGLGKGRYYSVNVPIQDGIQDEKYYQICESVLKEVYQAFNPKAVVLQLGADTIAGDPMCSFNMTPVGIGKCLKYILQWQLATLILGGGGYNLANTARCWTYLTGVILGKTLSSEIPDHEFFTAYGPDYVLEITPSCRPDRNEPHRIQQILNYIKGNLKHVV
Description: Inhibitors were tested at eight serial dilutions in triplicate ranging from 50 μM–86,7 pM (HDAC6) or 100 μM–8,67 nM (HDAC1,2,3,8). Drug dosing was performed from 10 mM and 0.1 mM DMSO stock solutions with a D300e Digital Dispenser (Tecan). HDACs (7 ng/mL for HDAC1, 10 ng/mL for HDAC2, 200 ng/mL for HDAC3/Ncor2 complex, 100 ng/mL for HDAC6, 200 ng/mL for HDAC8) and inhibitors were incubated together for 30 min at room temperature. After addition of the HDAC‐Glo™ I/II reagent, plates were shaken (800 rpm orbital shaker, 30 s), centrifuged (300 g, 1 min) and incubated at room temperature for 30 min. Luminescence was detected with a CLARIOstar (BMG Labtech) plate reader.

HDAC10 [2] = target: T1, HDAC10; parameters: host or cells: Sf21 insect cells (baculovirus); method as in PMID 30964290; details: previously shown; cited from earlier work
[3] = tested on: lysosomal staining with LysoTracker DND‐99 (HDAC10 knockdown phenotype); assay: LysoTracker assay in SK-N-BE(2)C cells; assay type: cell-based; details: 10 μM inhibitor, normalized to DMSO
Description: LysoTracker assay: SK‐N‐BE(2)‐C cells were seeded into 6‐well dishes at a density of 1.5×10^5 cells per well. Cells were treated with inhibitor over night at concentrations indicated in the figure and stained the following day for 1 h with 50 nM LysoTracker® Red DND‐99 in medium under standard cell culture conditions. Cells were washed with ice‐cold RPMI without phenol‐red and trypsinized for 3 min at 37 °C. Detached cells were centrifuged for 3 min at 8600 g and re‐suspended in ice‐cold RPMI without phenol red. Mean LysoTracker fluorescence was quantified on a BD FACSCanto II platform using the PE filter setting. Data were normalized to mean LysoTracker fluorescence of solvent (DMSO) treated cells.

[4] = tested on: SK‐N‐BE(2)C neuroblastoma cell line; assay: SK-N-BE(2)C cell viability assay (CellTiter-Blue); assay type: cell-based; details: SK-N-BE(2)C cells
Description: Cell viability assay: SK‐N‐BE(2)C cells were cultured in Dulbecco's modified Eagle medium (DMEM, Lonza, Basel, Switzerland) supplemented with 10 % fetal calf serum (FCS, Sigma‐Aldrich) and 1 % non‐essential amino acids (NEAA, Lonza). SK‐N‐BE(2)C cells were seeded from a confluent flask into 96‐well plates in 100 μL full growth medium at a density of 5×10^3 cells per well the day before treatment. Cells were treated in triplicates with drug concentrations as indicated in the respective figure. Drugs were dosed from 50 mM and 200 mM stock solutions with a D300e Digital Dispenser (Tecan) and DMSO concentrations were normalized to 0.2 % for all wells. Plates were shaken (1000 rpm orbital shaker, 30 s) and incubated under standard culture conditions for 72 h. To each well 20 μL of CellTiter‐Blue® reagent (G8081, Promega) was added, plates were shaken (600 rpm orbital shaker, 20 s) and incubated at 37 °C overnight. Fluorescence was measured (extinction/emission: 570 nm/590 nm) on a FluoStar Optima (BMG Labtech) plate reader. Cell viability was normalized with untreated positive controls and cell‐free negative controls. IC50‐values were calculated as described in the BRET assay.

HDAC10 [5] = target: T1, HDAC10; assay: cellular BRET HDAC10 target engagement assay (stably transfected HeLa cells); assay type: cell-based; parameters: host or cells: HeLa (stably transfected mono-clones); details: cellular target engagement, one experiment in triplicate; read-out: HDAC10 BRET pIC50 (converted)
Description: Production of mono‐clones stably expressing HDAC‐nanoBRET proteins: Plasmids expressing a fusion of HDAC10 with nanoluciferase were obtained from Promega (N2170). HeLa cells (0.75×10^6) were seeded in a 6 cm dish and after 24 h were transfected with a mix of 10 μg plasmid and 3 μL Fugene in 200 μL OptiMEM. In detail, cells were washed with pre‐warmed OptiMEM and subsequently overlaid with 2.3 mL of OptiMEM. After addition of 200 μL transfection mix, cells were incubated for 24 h at 37 °C. Cells were than trypsinized and 0.2×10^5 cells were seeded into both 10 cm and 15 cm dishes. Transformants were selected with 1 mg/mL G‐418 for 6 days with a media change after 3 days. Clones which formed colonies were picked by rinsing plates with 3 mL Trypsin/EDTA (Sigma T3924) followed by a 2 min incubation with 300 μL Trypsin/EDTA at 37 °C. Colonies were then loosened and aspirated with a 10 μL filter tip and transferred to 24‐well plates containing selection medium.
Culture of stable BRET cell lines: Stably transfected HeLa cells were cultivated under sterile conditions in polystyrene cell culture flasks (658170, Greiner) at 37 °C and 5 % CO2 in a humidified atmosphere. DMEM growth medium (D6049, Sigma) was supplemented with 10 % FCS (FBS‐12A, Capricorn Scientific), 1 % penicillin‐streptomycin (P4333, Sigma) and 1 mg/mL Geneticin (2039.3, Roth). At confluency, cells were passaged by removing old medium, DPBS (14190‐094, gibco) wash, trypsination (T4049, Sigma) and seeding in fresh growth medium.
BRET assay: The intracellular target engagement assay on HDAC10 was performed as described by the kit manufacturer in a 96‐well plate (3600, Corning) format with 1.9×10^4 cells per well and a tracer concentration of 0.3 μM. […] Drug dosing was performed from 10 mM and 1 mM DMSO stock solutions with a D300e Digital Dispenser (Tecan), DMSO concentrations were normalized to 0.5 % for all wells. Assay plates were incubated at 37 °C for 2 h followed by measurement of 450 nm and 650 nm luminescence (80 nm bandwidth) at room temperature with a CLARIOstar (BMG Labtech) plate reader 2 min after NanoLuc substrate addition.

[6] = tested on: acetylation of the HDAC8 substrate SMC3; assay: Western blot of SMC3 acetylation in SK-N-BE(2)C cells; assay type: cell-based; details: relative to solvent control
Description: Western blot analysis of SMC3, tubulin and histone H3 acetylation: For the analysis of protein acetylation, 1.5–2×10^6 SK‐N‐BE(2)‐C cells were seeded per 10 cm dish and allowed to adhere overnight. Cells were treated for 18 h (Figure 4B) or 6 h (Figure 4E) with inhibitors at concentrations indicated in the respective figure. […] Cell debris was removed by centrifugation (15 000 g for 10 min at 12 °C).

IC50 (HDAC10 [1]) [nM] | IC50 (HDAC8) [nM] | SMILES | other results
1620 | 49 | COc1ccc(Cn2cc(CN(C)C)c3ccc(C(=O)NO)cc32)cc1 [Compound 2b] | 
6460 | 141 | COc1ccc(Cn2c3c(c4ccc(C(=O)NO)cc42)CN(C)CC3)cc1 [Compound 2c] | 
3160 | 69.2 | COc1ccc(Cc2c[nH]c3ccc(C(=O)NO)cc23)cc1 [Compound 2d] | 
661 | 43.7 | COc1ccc(Cc2cn(CCN(C)C)c3ccc(C(=O)NO)cc23)cc1 [Compound 2e] | 
19100 | 20.9 | COc1ccc(Cn2ncc3ccc(C(=O)NO)cc32)cc1 [Compound 2f] | 
6920 | 29.5 | COc1ccc(Cn2nc(CN(C)C)c3ccc(C(=O)NO)cc32)cc1 [Compound 2g] | acetylation of SMC3 (HDAC8 substrate), Western blot [6]: increased acetylation

The next lines start with the molecule.

SMILES | IC50 (HDAC10 [1]) [nM] | IC50 (HDAC8) [nM] | other results
O=C(NO)c1ccc(Cn2ccc3ccccc32)cc1 [Compound 1a] | 66.1 | 380 | 
CN(C)Cc1cn(Cc2ccc(C(=O)NO)cc2)c2ccccc12 [Compound 1b] | 5.25 | 955 | selectivity for HDAC10 over HDACs 1, 2, and 3 (HDAC10 [2]): > 100 fold
CN1CCc2c(c3ccccc3n2Cc2ccc(C(=O)NO)cc2)C1 [Compound 1c, reference compound] |  |  | lysosomal staining with LysoTracker DND-99 (HDAC10 knockdown phenotype) [3]: effective; cytotoxicity (extent of effect) ([4]; Figure S1): fully cytotoxic
O=C(NO)c1ccc(Cc2c[nH]c3ccccc23)cc1 [Compound 1d, 4-((1H-indol-3-yl)methyl)-N-hydroxyb en zamide] | 27.5 |  | IC50 (HDAC10 [5]): 39.8 nM
O=C(NO)c1ccc(Cn2ncc3ccccc32)cc1 [Compound 1f] | 234 | 389 | 
COc1ccc(Cn2ccc3ccc(C(=O)NO)cc32)cc1 [Compound 2a] |  |  | acetylation of SMC3 (HDAC8 substrate), Western blot [6]: increased acetylation; cytotoxicity (extent of effect) ([4]; Figure S1): not fully cy totoxic; Emax ([4]; Figure S1, read-out: maximum effect, cell growth inhibition): 62%; EC50 ([4]; read-out: EC50 dose-response curve (Figure S1)): 8100 nM
